Values quoted from earlier work, collected in US20160376245A1, “IMPURITY OF FAMOTIDINE” (GAVIS PHARMACEUTICALS, priority 2015, published 2016).
Like-named read-outs stand apart in the source and are kept apart here.

For `NC(N)=Nc1nc(CSCCC(N)=NS(N)(=O)=O)cs1` [Famotidine, N-(aminosulfonyl)-3-[[[2-[(diaminomethylene)amino]-4-thiazolyl]methyl]thio] propanimidamide], the solubility (in ethanol) is given as “practically insoluble”, the solubility (in glacial acetic acid) is given as “freely soluble” and the solubility (in methanol) is given as “slightly soluble”. The solubility (in water) was “very slightly soluble”.
